Experimental data reported in patent US9388148B2, “Acylaminocycloalkyl compounds suitable for treating disorders that respond to modulation of dopamine D3 receptor” (AbbVie Deutschland GmbH & Co. KG, priority 2013, dated 2016).

Tests used:
[1] = target: T1, human dopamine D2L receptors (long isoform) (Homo sapiens, UniProt P14416); assay: Dopamine D2L receptor binding ([125I]iodospiperone displacement); details: selectivity ratio, human D2L vs human D3 binding
T1 construct: expressed in transfected cells; host or cells: HEK-293
Summary of the method: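 Triplicate radioligand displacement in 50 mM tris, 120 mM NaCl, 5 mM KCl, 2 mM CaCl2, 2 mM MgCl2, 0.1% BSA, pH 7.4; the D3 buffer also contained 10 μM quinolone and 0.1% ascorbic acid. Incubation was 60 min at 25 °C, followed by GF/B filtration and scintillation counting.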

[2] = target: T2, human dopamine D3 receptors (Homo sapiens, UniProt P35462); assay: Dopamine D3 receptor binding ([125I]-iodosulpride displacement); details: membranes of HEK-293 cells with human D3 receptors, 0.1 nM [125I]-iodosulpride
T2 construct: expressed in transfected cells; host or cells: HEK-293
Protocol: The substance to be tested was either dissolved in methanol/Chremophor® (BASF SE) or in dimethyl sulfoxide and then diluted with water to the desired concentration.
Each assay mixture was run in triplicate. • The incubation buffer contained 50 mM tris, 120 mM NaCl, 5 mM KCl, 2 mM CaCl2, 2 mM MgCl2 and 0.1% bovine serum albumin, 10 μM quinolone and 0.1% ascorbic acid (prepared fresh daily). […] Each assay mixture was run in triplicate. • The incubation buffer contained 50 mM tris, 120 mM NaCl, 5 mM KCl, 2 mM CaCl2, 2 mM MgCl2 and 0.1% bovine serum albumin. The buffer was adjusted to pH 7.4 with HCl. c) Measurement and analysis: • After having been incubated at 25° C. for 60 minutes, the assay mixtures were filtered through a Whatman GF/B glass fiber filter under vacuum using a cell col-lecting device. The filters were transferred to scintillation viols using a filter transfer system. After 4 ml of Ultima Gold® (Packard) have been added, the samples were shaken for one hour and the radioactivity was then counted in a Beta-Counter (Packard, Tricarb 2000 or 2200CA).

T2 sequence (P35462 whole entry): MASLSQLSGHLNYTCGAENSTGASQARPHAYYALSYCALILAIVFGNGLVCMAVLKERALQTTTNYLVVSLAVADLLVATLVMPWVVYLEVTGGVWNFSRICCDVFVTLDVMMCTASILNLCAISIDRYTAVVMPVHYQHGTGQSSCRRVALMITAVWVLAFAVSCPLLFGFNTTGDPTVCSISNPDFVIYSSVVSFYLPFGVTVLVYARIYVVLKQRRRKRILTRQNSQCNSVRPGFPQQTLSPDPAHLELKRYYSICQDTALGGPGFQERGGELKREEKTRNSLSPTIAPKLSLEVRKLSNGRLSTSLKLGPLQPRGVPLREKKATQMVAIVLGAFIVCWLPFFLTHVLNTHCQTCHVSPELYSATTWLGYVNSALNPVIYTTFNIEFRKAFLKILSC
T1 sequence (P14416 whole entry, canonical isoform): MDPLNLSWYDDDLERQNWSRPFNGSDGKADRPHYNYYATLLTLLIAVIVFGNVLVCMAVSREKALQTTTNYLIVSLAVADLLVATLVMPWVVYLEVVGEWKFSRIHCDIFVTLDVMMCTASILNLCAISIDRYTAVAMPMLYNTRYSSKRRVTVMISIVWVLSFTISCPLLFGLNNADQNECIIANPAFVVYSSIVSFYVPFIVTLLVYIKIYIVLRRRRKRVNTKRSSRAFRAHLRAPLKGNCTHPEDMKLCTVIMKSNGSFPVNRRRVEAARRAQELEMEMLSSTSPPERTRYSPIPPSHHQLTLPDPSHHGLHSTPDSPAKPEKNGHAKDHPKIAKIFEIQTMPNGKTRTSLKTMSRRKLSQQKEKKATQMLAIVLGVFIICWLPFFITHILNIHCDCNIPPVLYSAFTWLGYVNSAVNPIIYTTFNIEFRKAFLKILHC

In the case of `CC(C)c1cc(N2CCN(CCC3CCC(NC(=O)[C@H]4C[C@H](O)C4)CC3)C[C@@H]2C)nc(C(C)(C)C)n1` (stereo partly drawn) [Compound 48, Trans-N-[4-[2-[(3S)-4-(2-tert-butyl-6-isopropyl-pyrimidin-4-yl)-3-methyl-piperazin-1-yl]ethyl]cyclohexyl]-3-hydroxycyclobutanecarboxamide], the “D2/D3, Ki (D2L)/Ki (D3)” value [1] is reported as “+++ (+++ >50)” and the Ki [2] is reported as under 10 nM.
